Earlier results on one molecule are cited in patent US20130039858A1, “NIR MATERIALS AND NANOMATERIALS FOR THERANOSTIC APPLICATIONS” (University of Florida Research Foundation, Inc., priority 2010, published 2013).

The conditions of this data set: in H2O.

The structures appear in SMILES notation.

For `CC1(C)C(/C=C/C=C/C=C/C=C2\N(CCCCS(=O)(=O)O)c3ccc4ccccc4c3C2(C)C)=[N+](CCCCS(=O)(=O)[O-])c2ccc3ccccc3c21` [ICG, indocyanine green], the critical micelle concentration entry was “about 0.32 mg/mL”.
